# Measurements taken from patent US20240101576A1, “HETEROCYCLIC INHIBITORS OF EGFR AND/OR HER2, FOR USE IN THE TREATMENT OF CANCER” (Scorpion Therapeutics, Inc., priority 2020, published 2024).
# pIC50: −log10 of the molar value.
# What was measured:
# Type in all cases: cell-based
# [1] = biological target: T1, EGFR exon 20 NPG Ins D770_N771 (Ba/F3 cells) (Homo sapiens, UniProt P00533, INS770NPG); test: Inhibitor activity on EGFR-dependent cell growth (CellTiter-Glo, 72 h), Ba/F3 EGFR exon 20 NPG Ins; details: read-out: BaF3 NPG IC50
# T1 construct: expressed in transfected cells; host or cells: Ba/F3 (murine pro-B cells), retroviral transduction, puromycin selection, IL3-independent pool
# Summary of the method: (§1)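 IC50s derive from a sigmoidal dose–response fit of CellTiter-Glo signal. The signal was normalised between […]-treated cells and cell-free medium. Ba/F3 mutant-EGFR cells, seeded at 400–800/well depending on the line, had 72 h of exposure to a 10-point, 3-fold compound series.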
# [2] = biological target: T2, EGFR L858R/C797S (Ba/F3 cells) (Homo sapiens, UniProt P00533, C797S/L858R); test: Inhibitor activity on EGFR phosphorylation (pEGFR AlphaLISA, 2 h), Ba/F3 EGFR L858R/C797S
# T2 construct: expressed in transfected cells; host or cells: Ba/F3 (murine pro-B cells), retroviral transduction, puromycin selection, IL3-independent pool
# Excerpt: (§2) Example B. Inhibitor Activity on EGFR phosphorylation (pEGFR)
# (§3) EGFR mutant Ba/F3 cells were generated by transduction with retrovirus containing vectors expressing EGFR L858R, EGFR exon 19del, EGFR L858R/C797S, EGFR exon 20 NPG Ins D770_N771, EGFR exon 20 ASV Ins V769_D770, or EGFR exon 20 SVD Ins D770_N771 genes along with a puromycin selection marker. Transduced cells are selected with puromycin for 7 days and are then be transferred into culture media without Interleukin 3 (IL3). Surviving cells are confirmed to express EGFR by Western blot and maintained as a pool. CUTO14 cells were obtained from Dr. Robert C. Doebele at the University of Colorado. The IC50 date are included in Table 6 and Table 7.
# (§4) 1.1 Cells are harvested from flask into cell culture medium and the cell number counted.
# (§5) 1.2 Cells are diluted with culture medium to the desired density and 40 μL of cell suspension is added into each well of 384-well cell culture plate and the seeding density is 50K cells/well (Ba/F3) or 12.5K cells/well (CUTO14).
# (§6) 2 Compound Preparation and Treatment
# (§7) 2.1 Test compounds are dissolved to 10 mM in a DMSO stock solution. 45 μL of stock solution is transferred to a 384 polypropylene plate (pp-plate). Perform 3-fold, 10-point dilution via transferring 15 μL compound into 30 μL DMSO using a TECAN (EVO200) liquid handler.
# (§8) 2.2 Spin plates at room temperature at 1,000 RPM for 1 minute.
# (§9) 2.3 Transfer 5 nL of diluted compound from compound source plate into the cell plate.
# (§10) 2.4 After compound treatment for 2 hours, perform pEGFR detection by AlphaLISA for compound treatment plates as described in “Detection” section.
# (§11) 3 Detection by pEGFR AlphaLISA (Perkin-Elmer)
# (§12) 3.1 Plates are removed from incubators and equilibrated at room temperature for 10 minutes, and media was removed
# (§13) 3.2 10 μL of lysis buffer is added and plates shaken at 600 rpm for 1 hr.
# (§14) 3.3 Prepare acceptor mix just before use and dispense 5 μL of acceptor mix to all the wells. Shake 350 rpm for Ihr in the dark
# (§15) 3.4 Prepare donor mix under low light conditions prior to use. Dispense 5 μL of donor mix to all the wells. Mix well on the shaker, seal and wrap in aluminum foil and incubate 1.5 hrs at room temperature in the dark
# (§16) 3.5 Transfer 18.5 μL mixture to OptiPlate 384, and read using an Envision. The IC50 date were included in Table 6 and Table 7.
# [3] = biological target: T3, EGFR exon 19del (Ba/F3 cells) (Homo sapiens, UniProt P00533); test: Inhibitor activity on EGFR-dependent cell growth (CellTiter-Glo, 72 h), Ba/F3 EGFR exon 19del; details: Ba/F3 EGFR exon 19del cell growth, read-out: BaF3 Del19 IC50
# Summary of the method: (§17)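 Compounds, serially diluted 3-fold over 10 points in DMSO and added at 120 nL per well, act on Ba/F3 EGFR-mutant cells for 72 h. Seeding is 800 (exon 19del, FQEA), 600 (L858R/C797S) or 400 (L858R) cells/well. CTG luminescence is fitted with a four-parameter logistic curve to give IC50.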
# [4] = biological target: T2, EGFR L858R/C797S (Ba/F3 cells); test: Inhibitor activity on EGFR-dependent cell growth (CellTiter-Glo, 72 h), Ba/F3 EGFR L858R/C797S; details: read-out: BaF3 L858R/C797S IC50
# Excerpt: Example A. Inhibitor Activity on EGFR-Dependent Cell Growth
# Cell lines are generated by transducing Ba/F3 cells with retroviruses containing vectors with EGFR WT, EGFR L858R, EGFR exon 19del, EGFR L858R/C797S, EGFR exon 20 NPG Ins D770_N771, EGFR exon 20 ASV Ins V769_D770, EGFR exon 20 SVD Ins D770_N771, or EGFR exon 20 FQEA Ins A763_V764 genes and a puromycin selection marker. Transduced cells are selected with puromycin for 7 days and are then be transferred into culture media without Interleukin 3 (IL3). EGFR WT cells are maintained with supplemental EGF. Surviving cells are confirmed to express EGFR by Western blot and maintained as a pool. The IC50 date were included in Table 6 and Table 7.
# as §4
# 1.2 Cells are diluted with culture medium to the desired density and 40 μL of cell suspension is added into each well of 384-well cell culture plate and the seeding density is 800 (FQEA, exon 19del), 600 (WT, NPG, L858R/C797S), or 400 (ASV, SVD, L858R) cells/well.
# as §6, §7, §8
# 2.3 Transfer 120 nL of diluted compound from compound source plate into the cell plate.
# 2.4 After compound treatment for 72 hours, perform CTG detection for compound treatment plates as described in “Detection” section.
# 3.1 Plates are removed from incubators and equilibrated at room temperature for 15 minutes.
# 3.2 Thaw the CellTiter Glo reagents and allow to equilibrate to room temperature before the experiment.
# 3.3 Add 40 μL of CellTiter-Glo reagent into each well (at 1:1 to culture medium). Then place the plates at room temperature for 30 min followed by reading on EnVision.
# 4.1 Inhibition activity is calculated following the formula below:
# % Inhibition=100×(LumHC−LumSample)/(LumHC−LumLC) • where HC is obtained from cells treated with 0.1% DMSO only; and LC is obtained from culture medium only.
# 4.2 2. Calculate the IC50 by fitting the Curve using Xlfit (v5.3.1.3), equation 201.
# Y=Bottom+(Top−Bottom)/(1+10^((Log IC50−X)*HillSlope))
# [5] = biological target: T3, EGFR exon 19del (Ba/F3 cells); test: Inhibitor activity on EGFR phosphorylation (pEGFR AlphaLISA, 2 h), Ba/F3 EGFR exon 19del; details: read-out: Del19 IC50 (pEGFR)
# Excerpt: as §2, §3, §4, §5, §6, §7, §8, §9, §10, §11, §12, §13, §14, §15, §16
# EGFR L858R (Ba/F3 cells) [6] = biological target: T4, EGFR L858R (Ba/F3 cells) (Homo sapiens, UniProt P00533, L858R); test: Inhibitor activity on EGFR-dependent cell growth (CellTiter-Glo, 72 h), Ba/F3 EGFR L858R; details: read-out: BaF3 L858R IC50
# T4 construct: expressed in transfected cells; host or cells: Ba/F3 (murine pro-B cells), retroviral transduction, puromycin selection, IL3-independent pool
# Summary of the method: as §17
# [7] = biological target: T5, EGFR exon 20 SVD Ins D770_N771 (Ba/F3 cells) (Homo sapiens, UniProt P00533, INS770SVD); test: Inhibitor activity on EGFR-dependent cell growth (CellTiter-Glo, 72 h), Ba/F3 EGFR exon 20 SVD Ins; details: read-out: BaF3 SVD IC50
# T5 construct: expressed in transfected cells; host or cells: Ba/F3 (murine pro-B cells), retroviral transduction, puromycin selection, IL3-independent pool
# Summary of the method: as §1
# EGFR L858R (Ba/F3 cells) [8] = biological target: T4, EGFR L858R (Ba/F3 cells); test: Inhibitor activity on EGFR phosphorylation (pEGFR AlphaLISA, 2 h), Ba/F3 EGFR L858R
# Excerpt: as §2, §3, §4, §5, §6, §7, §8, §9, §10, §11, §12, §13, §14, §15, §16
# EGFR WT (Ba/F3 cells) = biological target: T6, EGFR WT (Ba/F3 cells) (Homo sapiens, UniProt P00533); test: Inhibitor activity on EGFR-dependent cell growth (CellTiter-Glo, 72 h), Ba/F3 EGFR WT; details: read-out: BaF3 WT IC50
# T6 construct: expressed in transfected cells; host or cells: Ba/F3 (murine pro-B cells), retroviral transduction, puromycin selection, maintained with EGF
# Summary of the method: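 This growth assay used Ba/F3 cells that depend on wild-type EGFR and are kept in EGF without IL3. Compounds were made up as 10 mM DMSO stocks and diluted 3-fold over 10 points. 120 nL went onto 600 cells/well. After 72 hours, 40 μL CellTiter-Glo was added and luminescence read on EnVision after 30 min.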
# [9] = biological target: T7, EGFR exon 20 ASV Ins V769_D770 (Ba/F3 cells) (Homo sapiens, UniProt P00533, INS769ASV); test: Inhibitor activity on EGFR-dependent cell growth (CellTiter-Glo, 72 h), Ba/F3 EGFR exon 20 ASV Ins; details: read-out: BaF3 ASV IC50
# T7 construct: expressed in transfected cells; host or cells: Ba/F3 (murine pro-B cells), retroviral transduction, puromycin selection, IL3-independent pool
# Summary of the method: as §1
# [10] = biological target: T8, EGFR exon 20 FQEA Ins A763_V764 (Ba/F3 cells) (Homo sapiens, UniProt P00533, INS763FQEA); test: Inhibitor activity on EGFR-dependent cell growth (CellTiter-Glo, 72 h), Ba/F3 EGFR exon 20 FQEA Ins; details: read-out: BaF3 FQEA IC50
# T8 construct: expressed in transfected cells; host or cells: Ba/F3 (murine pro-B cells), retroviral transduction, puromycin selection, IL3-independent pool
# Summary of the method: as §17
# T5 sequence (P00533 with tags, fused parts or gaps INS770SVD): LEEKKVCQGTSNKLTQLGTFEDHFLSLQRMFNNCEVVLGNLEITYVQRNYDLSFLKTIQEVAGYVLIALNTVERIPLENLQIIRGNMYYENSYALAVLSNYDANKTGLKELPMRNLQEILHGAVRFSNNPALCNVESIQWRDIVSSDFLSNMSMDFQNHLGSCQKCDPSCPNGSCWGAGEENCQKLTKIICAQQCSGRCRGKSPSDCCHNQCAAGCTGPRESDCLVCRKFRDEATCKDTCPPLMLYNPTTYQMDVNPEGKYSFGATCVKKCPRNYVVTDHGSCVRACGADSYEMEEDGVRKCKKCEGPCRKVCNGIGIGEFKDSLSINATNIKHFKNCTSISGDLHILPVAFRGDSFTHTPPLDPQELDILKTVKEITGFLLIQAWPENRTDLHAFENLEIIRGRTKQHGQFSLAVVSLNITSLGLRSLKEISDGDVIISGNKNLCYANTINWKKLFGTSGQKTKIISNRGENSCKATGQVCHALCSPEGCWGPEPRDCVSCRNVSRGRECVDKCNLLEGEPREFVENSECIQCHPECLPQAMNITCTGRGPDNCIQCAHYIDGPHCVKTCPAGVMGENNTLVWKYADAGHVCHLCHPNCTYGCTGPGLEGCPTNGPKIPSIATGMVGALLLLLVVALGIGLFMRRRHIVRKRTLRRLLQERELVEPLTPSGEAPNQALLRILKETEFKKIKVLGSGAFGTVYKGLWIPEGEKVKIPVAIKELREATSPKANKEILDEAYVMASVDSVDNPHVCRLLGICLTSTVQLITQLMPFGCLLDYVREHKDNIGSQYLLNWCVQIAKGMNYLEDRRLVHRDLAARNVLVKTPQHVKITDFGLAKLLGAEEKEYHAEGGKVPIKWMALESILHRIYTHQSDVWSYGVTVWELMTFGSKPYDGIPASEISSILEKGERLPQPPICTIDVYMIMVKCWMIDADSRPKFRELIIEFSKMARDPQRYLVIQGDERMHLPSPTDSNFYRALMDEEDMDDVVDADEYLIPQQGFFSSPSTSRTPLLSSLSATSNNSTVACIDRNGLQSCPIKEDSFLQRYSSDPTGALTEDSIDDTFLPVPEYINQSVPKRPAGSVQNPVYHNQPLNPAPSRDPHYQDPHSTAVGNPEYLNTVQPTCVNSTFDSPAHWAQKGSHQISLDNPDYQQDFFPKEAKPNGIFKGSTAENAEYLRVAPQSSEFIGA
# T7 sequence (P00533 with tags, fused parts or gaps INS769ASV): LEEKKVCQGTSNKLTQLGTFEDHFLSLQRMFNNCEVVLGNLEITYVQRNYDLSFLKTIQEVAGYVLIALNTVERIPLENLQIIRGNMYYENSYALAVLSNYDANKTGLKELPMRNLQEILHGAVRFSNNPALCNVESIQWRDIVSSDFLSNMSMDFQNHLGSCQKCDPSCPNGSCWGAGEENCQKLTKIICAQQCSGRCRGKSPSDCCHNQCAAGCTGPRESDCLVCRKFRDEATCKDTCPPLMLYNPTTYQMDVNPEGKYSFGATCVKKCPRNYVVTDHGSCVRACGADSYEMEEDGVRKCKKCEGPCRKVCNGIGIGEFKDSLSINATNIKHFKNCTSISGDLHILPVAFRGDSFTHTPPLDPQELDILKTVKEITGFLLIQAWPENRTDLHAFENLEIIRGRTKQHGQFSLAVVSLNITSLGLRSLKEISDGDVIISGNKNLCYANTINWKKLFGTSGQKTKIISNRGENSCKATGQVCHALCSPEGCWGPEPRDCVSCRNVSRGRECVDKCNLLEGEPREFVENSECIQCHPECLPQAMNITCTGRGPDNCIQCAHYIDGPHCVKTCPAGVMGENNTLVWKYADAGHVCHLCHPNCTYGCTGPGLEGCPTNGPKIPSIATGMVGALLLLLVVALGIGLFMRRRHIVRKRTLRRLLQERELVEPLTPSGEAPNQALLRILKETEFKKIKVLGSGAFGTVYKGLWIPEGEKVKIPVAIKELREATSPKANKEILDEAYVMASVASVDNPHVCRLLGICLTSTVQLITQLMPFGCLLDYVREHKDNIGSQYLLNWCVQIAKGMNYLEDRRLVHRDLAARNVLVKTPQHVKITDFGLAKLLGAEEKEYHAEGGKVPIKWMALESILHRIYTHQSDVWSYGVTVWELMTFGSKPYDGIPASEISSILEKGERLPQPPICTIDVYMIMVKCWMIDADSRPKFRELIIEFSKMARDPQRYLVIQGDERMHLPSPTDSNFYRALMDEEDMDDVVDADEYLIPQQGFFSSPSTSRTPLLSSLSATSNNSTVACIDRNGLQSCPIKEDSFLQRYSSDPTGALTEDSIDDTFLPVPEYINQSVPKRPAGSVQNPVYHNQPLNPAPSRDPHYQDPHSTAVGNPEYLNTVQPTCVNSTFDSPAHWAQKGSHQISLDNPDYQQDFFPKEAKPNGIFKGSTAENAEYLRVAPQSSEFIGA
# T6 sequence (P00533 25-1210): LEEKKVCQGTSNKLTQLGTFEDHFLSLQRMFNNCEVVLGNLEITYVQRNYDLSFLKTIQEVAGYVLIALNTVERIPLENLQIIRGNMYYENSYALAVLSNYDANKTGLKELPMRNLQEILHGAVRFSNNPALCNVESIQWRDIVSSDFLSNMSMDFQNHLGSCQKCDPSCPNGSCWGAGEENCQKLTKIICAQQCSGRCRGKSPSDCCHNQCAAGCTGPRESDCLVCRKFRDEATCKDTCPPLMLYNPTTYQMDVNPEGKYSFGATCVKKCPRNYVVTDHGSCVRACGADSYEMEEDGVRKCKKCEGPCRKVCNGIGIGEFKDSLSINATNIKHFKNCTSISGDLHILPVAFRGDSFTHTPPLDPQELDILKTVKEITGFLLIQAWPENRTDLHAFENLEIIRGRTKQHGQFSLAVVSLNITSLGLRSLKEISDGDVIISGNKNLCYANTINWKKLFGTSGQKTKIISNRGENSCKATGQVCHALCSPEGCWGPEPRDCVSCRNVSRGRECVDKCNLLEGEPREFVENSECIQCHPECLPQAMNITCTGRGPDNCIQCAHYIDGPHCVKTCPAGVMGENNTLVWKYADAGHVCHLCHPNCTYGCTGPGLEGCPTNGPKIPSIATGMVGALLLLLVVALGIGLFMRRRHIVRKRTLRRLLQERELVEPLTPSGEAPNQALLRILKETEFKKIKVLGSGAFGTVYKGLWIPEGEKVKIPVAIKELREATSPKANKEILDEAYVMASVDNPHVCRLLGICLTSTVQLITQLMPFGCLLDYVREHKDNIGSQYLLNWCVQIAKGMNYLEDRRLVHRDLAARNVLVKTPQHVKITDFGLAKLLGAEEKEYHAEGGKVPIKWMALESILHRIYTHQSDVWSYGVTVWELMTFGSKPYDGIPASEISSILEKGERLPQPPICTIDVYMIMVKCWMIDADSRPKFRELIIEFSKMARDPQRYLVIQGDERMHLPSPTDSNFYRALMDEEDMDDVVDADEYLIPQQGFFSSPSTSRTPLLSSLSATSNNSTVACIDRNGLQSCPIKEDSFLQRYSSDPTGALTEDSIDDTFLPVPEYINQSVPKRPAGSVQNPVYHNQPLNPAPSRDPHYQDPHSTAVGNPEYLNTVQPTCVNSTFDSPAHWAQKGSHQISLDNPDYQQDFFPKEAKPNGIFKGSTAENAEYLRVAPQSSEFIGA
# T4 sequence (P00533 25-1210 L858R): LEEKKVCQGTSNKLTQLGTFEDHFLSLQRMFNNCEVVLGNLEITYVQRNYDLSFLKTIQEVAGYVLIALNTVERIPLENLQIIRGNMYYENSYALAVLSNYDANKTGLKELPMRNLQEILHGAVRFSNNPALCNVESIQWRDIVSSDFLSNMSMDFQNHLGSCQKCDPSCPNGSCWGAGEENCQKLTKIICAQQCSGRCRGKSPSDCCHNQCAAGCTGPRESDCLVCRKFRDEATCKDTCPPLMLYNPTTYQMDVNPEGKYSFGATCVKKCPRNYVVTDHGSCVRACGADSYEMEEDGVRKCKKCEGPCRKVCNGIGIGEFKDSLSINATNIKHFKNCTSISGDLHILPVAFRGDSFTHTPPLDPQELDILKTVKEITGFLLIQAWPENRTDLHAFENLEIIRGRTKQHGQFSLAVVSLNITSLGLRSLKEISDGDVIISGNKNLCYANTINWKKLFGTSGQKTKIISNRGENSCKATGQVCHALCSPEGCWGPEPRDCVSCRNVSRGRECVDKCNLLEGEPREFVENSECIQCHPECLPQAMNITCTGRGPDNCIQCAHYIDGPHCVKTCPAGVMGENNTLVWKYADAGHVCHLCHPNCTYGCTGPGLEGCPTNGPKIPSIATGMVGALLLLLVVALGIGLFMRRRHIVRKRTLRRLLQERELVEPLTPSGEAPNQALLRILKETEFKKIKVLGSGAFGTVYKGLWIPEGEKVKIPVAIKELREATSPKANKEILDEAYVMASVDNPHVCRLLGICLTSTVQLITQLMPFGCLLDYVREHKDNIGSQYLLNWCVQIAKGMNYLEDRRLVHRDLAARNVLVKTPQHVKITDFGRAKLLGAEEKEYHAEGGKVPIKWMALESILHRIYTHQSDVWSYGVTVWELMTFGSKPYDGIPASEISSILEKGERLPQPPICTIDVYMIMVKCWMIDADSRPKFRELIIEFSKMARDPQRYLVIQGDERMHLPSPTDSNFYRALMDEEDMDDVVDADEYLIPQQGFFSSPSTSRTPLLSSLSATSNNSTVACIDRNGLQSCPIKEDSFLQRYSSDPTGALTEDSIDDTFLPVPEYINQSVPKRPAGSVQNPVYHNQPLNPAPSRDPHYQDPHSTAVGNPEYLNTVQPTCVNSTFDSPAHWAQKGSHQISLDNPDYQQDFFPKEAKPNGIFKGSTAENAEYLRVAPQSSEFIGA
SMILES,pIC50 [1],pIC50 [2],pIC50 [3],pIC50 [4],pIC50 [5],pIC50 (EGFR L858R (Ba/F3 cells) [6]),pIC50 [7],pIC50 (EGFR L858R (Ba/F3 cells) [8]),pIC50 (EGFR WT (Ba/F3 cells)),pIC50 [9],pIC50 [10]
COCC[C@H]1CNC(=O)c2c1[nH]c(-c1ccncn1)c2Nc1cccc(Cl)c1OC [445b],,> 7.00,> 7.00,> 7.00,> 7.00,> 7.00,6.00 to 7.00,> 7.00,< 6.00,6.00 to 7.00,6.00 to 7.00
COCC[C@@H]1CNC(=O)c2c1[nH]c(-c1ccncn1)c2Nc1cccc(F)c1OC [Compound 447a],,> 7.00,> 7.00,> 7.00,> 7.00,> 7.00,> 7.00,> 7.00,6.00 to 7.00,> 7.00,> 7.00

# The remaining lines, values ahead:
pIC50 [1],pIC50 [2],pIC50 [3],pIC50 [4],pIC50 [5],pIC50 (EGFR L858R (Ba/F3 cells) [6]),pIC50 [7],pIC50 (EGFR L858R (Ba/F3 cells) [8]),pIC50 (EGFR WT (Ba/F3 cells)),pIC50 [9],pIC50 [10],SMILES
> 7.00,> 7.00,> 7.00,> 7.00,> 7.00,> 7.00,> 7.00,> 7.00,6.00 to 7.00,> 7.00,,"COc1c(F)cccc1Nc1c(-c2ccncn2)[nH]c2c1C(=O)NCC2C[C@H]1COCCO1 (single isomer, unassigned) [Compound 530, (7R*)-7-[(2S)-1,4-dioxan-2-ylmethyl]-3-[(3-fluoro-2-methoxyphenyl)amino]-2-(pyrimidin-4-yl)-1H,5H,6H,7H-pyrrolo[3,2-c]pyridin-4-one]"
,6.00 to 7.00,> 7.00,> 7.00,> 7.00,> 7.00,6.00 to 7.00,> 7.00,< 6.00,6.00 to 7.00,6.00 to 7.00,"COc1c(Cl)cccc1Nc1c(-c2ccncc2F)[nH]c2c1C(=O)NCC21CCOCC1 [Compound 778, 3′-[(3-chloro-2-methoxyphenyl)amino]-2′-(3-fluoropyridin-4-yl)-5′,6′-dihydro-1′H-spiro[oxane-4,7′-pyrrolo[3,2-c]pyridin]-4′-one]"
> 7.00,> 7.00,> 7.00,> 7.00,> 7.00,> 7.00,> 7.00,> 7.00,6.00 to 7.00,> 7.00,,"COc1c(F)cccc1Nc1c(-c2ccncc2F)[nH]c2c1C(=O)NC[C@H]2CC1COCCO1 (stereo in doubt) [Compound 575, (7R)-7-[(2R)-1,4-dioxan-2-ylmethyl]-3-[(3-fluoro-2-methoxyphenyl)amino]-2-(3-fluoropyridin-4-yl)-1H,5H,6H,7H-pyrrolo[3,2-c]pyridin-4-one]"
